Experimental findings from ChEMBL document CHEMBL4622952, “Synthesis and biological evaluation of Schizandrin derivatives as tubulin polymerization inhibitors” (Bioorg Med Chem Lett, 2020) are described below.

Test [1] has as its system A549. Put plainly: Antiproliferative activity against human A549 cells assessed as reduction in cell viability measured after 48 hrs by MTT assay. The test is classed as functional, cell-based. The note with it: for IC50: A549, 48 h. A general note: Tetrazolium assays rely on reduction of a dye to a coloured formazan, in cell work by metabolically active cells.
Test [2] is described as follows: (§1) Antiproliferative activity against human RKOP3 cells assessed as reduction in cell viability measured after 48 hrs by MTT assay. In kind it is functional, cell-based.
The species named for test [3] is Homo sapiens. Described as §1. The test is classed as functional, cell-based.
The test system of test [4] is DU-145. Put plainly: Antiproliferative activity against human DU145 cells assessed as reduction in cell viability measured after 48 hrs by MTT assay. In kind it is functional, cell-based. The note with it: for IC50: DU-145, 48 h.
Test [5] has as its system HeLa. Put plainly: Antiproliferative activity against human HeLa cells assessed as reduction in cell viability measured after 48 hrs by MTT assay. The test is classed as functional, cell-based.
The subject of test [6] is HEK293. Put plainly: Cytotoxicity against human HEK293 cells assessed as reduction in cell viability measured after 48 hrs by MTT assay. The test is classed as cell-based. The note with it: Homo sapiens, HEK293, 48 h; read-out: IC50.
In test [7] the test system is DU-145. Put plainly: Cell cycle arrest in human DU145 cells assessed as accumulation at G0/G1 phase at 5 uM measured after 24 hrs by propidium iodide staining based flow cytometry analysis (reference value: 58.2 %). In kind it is functional. For orientation: Flow cytometry measures light scatter and fluorescence of single cells or particles in a stream.
Test [8] relates to DU-145. Put plainly: Cell cycle arrest in human DU145 cells assessed as accumulation at G0/G1 phase at 3 uM measured after 24 hrs by propidium iodide staining based flow cytometry analysis (reference value: 58.2 %). In kind it is functional.
Test [9] concerns DU-145. Put plainly: Cell cycle arrest in human DU145 cells assessed as accumulation at G0/G1 phase at 1.5 uM measured after 24 hrs by propidium iodide staining based flow cytometry analysis (reference value: 58.2 %). In kind it is functional.
Test [10] deals with DU-145. Put plainly: Induction of apoptosis in human DU145 cells assessed as live cells at 1.5 uM measured after 48 hrs by annexinV-FITC/propidium iodide staining based flow cytometry analysis (reference value: 97.09 %). The test is classed as functional.
For test [11], the system named is DU-145. Put plainly: Induction of apoptosis in human DU145 cells assessed as early apoptotic cells at 1.5 uM measured after 48 hrs by annexinV-FITC/propidium iodide staining based flow cytometry analysis (reference value: 2.34 %). The test is classed as functional.
Test [12] deals with DU-145. Put plainly: Induction of apoptosis in human DU145 cells assessed as late apoptotic cells at 1.5 uM measured after 48 hrs by annexinV-FITC/propidium iodide staining based flow cytometry analysis (reference value: 0.05 %). The test is classed as functional.
Test [13] has as its system DU-145. Put plainly: Induction of apoptosis in human DU145 cells assessed as necrotic cells at 1.5 uM measured after 48 hrs by annexinV-FITC/propidium iodide staining based flow cytometry analysis (reference value: 0.52 %). In kind it is functional.
The test system of test [14] is DU-145. Put plainly: Induction of apoptosis in human DU145 cells assessed as live cells at 3.5 uM measured after 48 hrs by annexinV-FITC/propidium iodide staining based flow cytometry analysis (reference value: 97.09 %). The test is classed as functional.
Test [15] relates to DU-145. Put plainly: Induction of apoptosis in human DU145 cells assessed as early apoptotic cells at 3.5 uM measured after 48 hrs by annexinV-FITC/propidium iodide staining based flow cytometry analysis (reference value: 2.34 %). In kind it is functional.
The test system of test [16] is DU-145. Put plainly: Induction of apoptosis in human DU145 cells assessed as late apoptotic cells at 3.5 uM measured after 48 hrs by annexinV-FITC/propidium iodide staining based flow cytometry analysis (reference value: 0.05 %). The test is classed as functional.
Test [17] deals with DU-145. Put plainly: Induction of apoptosis in human DU145 cells assessed as necrotic cells at 3.5 uM measured after 48 hrs by annexinV-FITC/propidium iodide staining based flow cytometry analysis (reference value: 0.52 %). The test is classed as functional.
Test [18] deals with DU-145. Put plainly: Induction of apoptosis in human DU145 cells assessed as live cells at 5 uM measured after 48 hrs by annexinV-FITC/propidium iodide staining based flow cytometry analysis (reference value: 97.09 %). The test is classed as functional.
Test [19] relates to DU-145. Put plainly: Induction of apoptosis in human DU145 cells assessed as early apoptotic cells at 5 uM measured after 48 hrs by annexinV-FITC/propidium iodide staining based flow cytometry analysis (reference value: 2.34 %). In kind it is functional.
In test [20] the test system is DU-145. Put plainly: Induction of apoptosis in human DU145 cells assessed as late apoptotic cells at 5 uM measured after 48 hrs by annexinV-FITC/propidium iodide staining based flow cytometry analysis (reference value: 0.05 %). The test is classed as functional.
Test [21] concerns DU-145. Put plainly: Induction of apoptosis in human DU145 cells assessed as necrotic cells at 5 uM measured after 48 hrs by annexinV-FITC/propidium iodide staining based flow cytometry analysis (reference value: 0.52 %). In kind it is functional.
Test [22] concerns the target T1, Tubulin (Homo sapiens) (UniProt P68371+Q9H4B7+P0DPH7+P68366+Q13509+Q71U36+P04350+Q3ZCM7+P07437+P68363+Q9BQE3+Q6PEY2+Q13885+Q9BVA1+Q9BUF5). Put plainly: Inhibition of tubulin […] in human DU145 cells assessed as increase in soluble fraction of tubulin at […] measured after 24 hrs by Western blot analysis. The test is classed as cell-based. The note with it: DU-145. A general note: A western blot detects proteins with antibodies after separation by electrophoresis.

Test [23] concerns the target T1, Tubulin (Homo sapiens). Put plainly: Inhibition of tubulin polymerization in human HeLa cells assessed as disruption of microtubule network at 10 uM measured after 24 hrs by immunofluorescence assay. In kind it is cell-based.

Activity calls are given as the source filed them. No cut-off for these calls is given here.

As usually defined, the IC50 is the concentration at which inhibition is half-maximal. Turning to `COC1=C(OC)C23C(=C/C1=N\OC(=O)c1c(Cl)cc(Cl)cc1Cl)C[C@H](C)[C@@]2(C)Cc1cc(OC)c(OC)c(OC)c13` (some centres not stated), the inhibition result in test [1], in [3], in [4] and in test [5] was “Dose-dependent effect” throughout. In addition, the half-inhibitory concentration (IC50) in test [1] is 7.4 µM; in test [2] it was 40.7 µM; in test [4] it was 37.5 µM; in [5], 50.8 µM; in test [6], 79.8 µM.
Turning to `CCOC(=O)CCC(=O)O/N=C1\C=C2C[C@H](C)[C@@]3(C)Cc4cc(OC)c(OC)c(OC)c4C23C(OC)=C1OC` (some centres not stated), the inhibition result in test [1], in test [3], in test [4] and in test [5] was “Dose-dependent effect” throughout. In addition, the IC50 amounted to 8.4 µM in [1]; 22.6 µM in test [2]; 25 µM in [4]; 8.37 µM in [5]; 85.4 µM in test [6].
As to `CCC(=O)O/N=C1\C=C2C[C@H](C)[C@@]3(C)Cc4cc(OC)c(OC)c(OC)c4C23C(OC)=C1OC` (some centres not stated), the inhibition result in test [1], in test [3], in test [4] and in test [5] was “Dose-dependent effect” in each case. For the same compound, the IC50 worked out at 6.5 µM in [1]; 60.5 µM in test [2]; 3.42 µM in test [4]; 45.3 µM in [5]; 65.1 µM in test [6]. Besides, the Activity came out at 71.07% in test [7]; 66.4% in test [8]; 66.97% in test [9]; 75.71% in test [10]; 23.33% in test [11]; 0.96% in test [12]. In addition, the Activity in test [13] is 0%; in test [14], 68.5%; in [15], 27.56%; in test [16], 3.87%; in test [17] it was 0.07%; in test [18] it was 68.98%. For the same compound, the Activity is reported as 29.44% in test [19], 1.54% in test [20] and 0.04% in test [21]. Also, the inhibition result in [22] and in [23] was “Active” each time.
With `COC1=C(OC)C23C(=C/C1=N\O)C[C@H](C)[C@@]2(C)Cc1cc(OC)c(OC)c(OC)c13` (some centres not stated), the inhibition result in [1], in test [3], in test [4] and in test [5] was “Dose-dependent effect” in each case. Besides, the IC50 was 8.52 µM in [1]; 55.9 µM in [2]; 7.55 µM in test [4]; 50.1 µM in test [5]; 54.8 µM in test [6].
Take `COC1=C(OC)C23C(=C/C1=N\OC(=O)C1CC1)C[C@H](C)[C@@]2(C)Cc1cc(OC)c(OC)c(OC)c13` (some centres not stated): the inhibition entry in [1], in test [3], in [4] and in [5] was “Dose-dependent effect” each time. Besides, the half-maximal inhibitory concentration (IC50) came to 7.8 µM in [1]; 60 µM in test [2]; 50.5 µM in [4]; 15.2 µM in [5]; 65.9 µM in test [6].
For the compound `COC1=C(OC)C23C(=C/C1=N\OC(=O)c1ccc(Br)cc1)C[C@H](C)[C@@]2(C)Cc1cc(OC)c(OC)c(OC)c13` (some centres not stated), the inhibition entry in test [1], in test [3], in test [4] and in test [5] was “Dose-dependent effect” throughout. Also, the IC50 in test [1] was determined as 5.92 µM; in test [2] it was 9.7 µM; in test [4] it was 20.3 µM; in test [5], 7.4 µM; in test [6], 135 µM.
In the case of `COC1=C(OC)C23C(=C/C1=N\OC(=O)c1ccc(F)cc1)C[C@H](C)[C@@]2(C)Cc1cc(OC)c(OC)c(OC)c13` (some centres not stated), the inhibition entry in test [1], in [3], in test [4] and in [5] was “Dose-dependent effect” each time. The IC50 was 9.02 µM in test [1]; 20.9 µM in test [2]; 16.6 µM in [4]; 5.5 µM in [5]; 81.6 µM in test [6].
As for `COC1=C(OC)C23C(=C/C1=N\OC(=O)C(C)C)C[C@H](C)[C@@]2(C)Cc1cc(OC)c(OC)c(OC)c13` (some centres not stated), the inhibition entry in [1], in [3], in test [4] and in test [5] was “Dose-dependent effect” in each case. The half-maximal inhibitory concentration (IC50) in [1] turned out to be 6.08 µM; in test [2], 15.4 µM; in test [4] it was 25.5 µM; in test [5], 4.74 µM; in [6] it was 80.5 µM.
On to `COC1=C(OC)C23C(=CC1=O)C[C@H](C)[C@@]2(C)Cc1cc(OC)c(OC)c(OC)c13` (some centres not stated), for which the inhibition entry in [1], in [3], in test [4] and in test [5] was “Dose-dependent effect” throughout. Besides, the IC50 in [1] worked out at 7.8 µM; in test [2], 50.5 µM; in test [4], 9.6 µM; in [5] it was 4.23 µM; in test [6] it was 49.7 µM.
On to `COc1cc2c(c(OC)c1OC)-c1c(cc(OC)c(OC)c1OC)C[C@](C)(O)[C@@H](C)C2` [SCHIZANDRIN], for which the inhibition entry in [1], in test [3], in test [4] and in [5] was “Dose-dependent effect” in each case. Besides, the IC50 was determined as 8.5 µM in [1]; 5.36 µM in test [2]; 5.38 µM in test [4]; 5.06 µM in test [5]; 80.5 µM in [6].
Consider `COC(=O)Nc1nc2cc(C(=O)c3cccs3)ccc2[nH]1`, for which the inhibition result in [22] was “Active”.
Regarding `CCCCC(=O)O/N=C1\C=C2C[C@H](C)[C@@]3(C)Cc4cc(OC)c(OC)c(OC)c4C23C(OC)=C1OC` (some centres not stated), the inhibition result in test [1], in test [3], in test [4] and in test [5] was “Dose-dependent effect” throughout. Moreover, the IC50 in test [1] worked out at 6.9 µM; in test [2], 14.8 µM; in [4], 22.9 µM; in test [5], 12.9 µM; in [6], 112 µM.
